Measurements taken from patent publication US20230365488A1, “TRUXILLIC ACID MONOESTER-DERIVATIVES AS SELECTIVE FABP5 INHIBITORS AND PHARMACEUTICAL COMPOSITIONS AND USES THEREOF” (The Research Foundation for The State University of New York, priority 2020, published 2023).

How the values were obtained:
FABP3 = FABP3 (Homo sapiens (Human), UniProt P05413); assay: FABP3 fluorescent probe displacement binding assay; settings: average ± S.E. of at least three independent experiments
FABP7 = FABP7 (Homo sapiens (Human), UniProt O15540); assay: FABP7 fluorescent probe displacement binding assay; settings: average ± S.E. of at least three independent experiments
Sequence of FABP7 (O15540 whole entry): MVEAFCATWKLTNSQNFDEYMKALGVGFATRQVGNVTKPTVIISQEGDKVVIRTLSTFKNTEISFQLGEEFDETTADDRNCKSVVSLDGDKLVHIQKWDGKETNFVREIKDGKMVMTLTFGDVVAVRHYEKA

PC3 cells = assay: MTT cytotoxicity and taxane combination (CI) analysis, PC3 (Example 6); assay type: cell-based, human; settings: for IC50: Homo sapiens, PC-3, MTT, 72-hour incubation, single agent; for CI value / Fa value / Relationship: PC3, 1y 7.5 μM or 1w 1.0 μM; for cytotoxicity of combination with docetaxel or cabazitaxel versus each drug administered independently: PC3 cells
DU-145 cells = assay: MTT cytotoxicity and taxane combination (CI) analysis, DU-145 (Example 6); assay type: cell-based, human; settings: for CI value / Fa value / Relationship: 1y 7.5 μM or 1w 1.0 μM
22Rv1 cells = assay: MTT cytotoxicity and taxane combination (CI) analysis, 22Rv1 (Example 6); assay type: cell-based, human; settings: for CI value / Fa value / Relationship / IC50: 22Rv1; for CI value / Fa value / Relationship: 1y 7.5 μM or 1w 1.0 μM; for cytotoxicity of combination with docetaxel or cabazitaxel versus each drug administered independently: 22Rv1 cells; for IC50: Homo sapiens, MTT, 72-hour incubation, single agent
[1] = MTT cytotoxicity, RWPE-1 (Example 6); assay type: cell-based; settings: human, RWPE-1 cells (normal prostate cell line), 72-hour incubation
[2] = MTT cytotoxicity, WI-38 (Example 6); assay type: cell-based; settings: human, WI-38 cells (normal lung cell line), 72-hour incubation
[3] = tested on: PC3 cells implanted subcutaneously; assay: Subcutaneous PC3 tumor growth in nude mice; assay type: in vivo, male BALB/c nude mice; settings: for tumor growth: 20 mg/kg, ip, once daily, from day 15, versus vehicle
[4] = combination with cabazitaxel 0.03 nM
[5] = combination with cabazitaxel 0.3 nM
[6] = combination with cabazitaxel 3.0 nM
[7] = combination with docetaxel 0.03 nM
[8] = combination with docetaxel 0.3 nM
[9] = combination with docetaxel 3.0 nM
[10] = DU-145, combination with cabazitaxel 0.03 nM
[11] = DU-145, combination with cabazitaxel 0.3 nM
[12] = DU-145, combination with cabazitaxel 3.0 nM
[13] = DU-145, combination with docetaxel 0.03 nM
[14] = DU-145, combination with docetaxel 0.3 nM
[15] = DU-145, combination with docetaxel 3.0 nM

Sequence of FABP3 (P05413 whole entry): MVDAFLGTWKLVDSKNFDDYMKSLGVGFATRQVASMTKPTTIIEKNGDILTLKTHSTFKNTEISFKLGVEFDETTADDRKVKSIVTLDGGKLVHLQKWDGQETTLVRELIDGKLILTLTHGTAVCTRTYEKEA

With `COc1ccccc1[C@H]1[C@H](C(=O)O)[C@H](c2ccccc2OC)[C@H]1C(=O)OCC1c2ccccc2-c2ccccc21` (racemic) [Compound 1w] as the compound, how does the Ki (FABP3) read?
Its Ki is 25.3 ± 4.57 µM.

And the Ki (FABP7)?
Its Ki is 4.26 ± 0.41 µM.

What about the IC50 (PC3 cells) of the same compound?
Its IC50 is 6.3 µM.

What about the CI value (PC3 cells; [4]) of the same compound?
The CI value was 0.899.

And the Fa value (PC3 cells; [4])?
The Fa value was 0.379.

What about the Relationship (PC3 cells; [4]) of the same compound?
Its Relationship is “synergistic”.

And the CI value (PC3 cells; [5])?
The CI value was 0.942.

And the Fa value (PC3 cells; [5])?
Its Fa value is 0.420.

And the Relationship (PC3 cells; [5])?
Its Relationship is “synergistic”.

And the CI value (PC3 cells; [6])?
The CI value was 0.373.

What about the Fa value (PC3 cells; [6]) of the same compound?
Its Fa value is 0.853.

What about the Relationship (PC3 cells; [6]) of the same compound?
The Relationship was “synergistic”.

What about the CI value (PC3 cells; [7]) of the same compound?
Its CI value is 0.710.

What about the Fa value (PC3 cells; [7]) of the same compound?
Its Fa value is 0.402.

And the Relationship (PC3 cells; [7])?
Its Relationship is “synergistic”.

And the CI value (PC3 cells; [8])?
The CI value was 0.889.

What about the Fa value (PC3 cells; [8]) of the same compound?
Its Fa value is 0.432.

And the Relationship (PC3 cells; [8])?
Its Relationship is “synergistic”.

What about the CI value (PC3 cells; [9]) of the same compound?
Its CI value is 0.394.

What about the Fa value (PC3 cells; [9]) of the same compound?
The Fa value was 0.700.

What about the Relationship (PC3 cells; [9]) of the same compound?
The Relationship was “synergistic”.

And the “cytotoxicity of combination with docetaxel or cabazitaxel versus each drug administered independently” value (PC3 cells)?
The value was “greater cytotoxicity”.

What about the CI value (DU-145 cells; [10]) of the same compound?
The CI value was 0.449.

What about the Fa value (DU-145 cells; [10]) of the same compound?
The Fa value was 0.464.

What about the Relationship (DU-145 cells; [10]) of the same compound?
Its Relationship is “synergistic”.

What about the CI value (DU-145 cells; [11]) of the same compound?
The CI value was 0.300.

And the Fa value (DU-145 cells; [11])?
The Fa value was 0.716.

And the Relationship (DU-145 cells; [11])?
Its Relationship is “synergistic”.

And the CI value (DU-145 cells; [12])?
The CI value was 0.194.

And the Fa value (DU-145 cells; [12])?
The Fa value was 0.882.

What about the Relationship (DU-145 cells; [12]) of the same compound?
Its Relationship is “synergistic”.

And the CI value (DU-145 cells; [13])?
The CI value was 4.473.

What about the Fa value (DU-145 cells; [13]) of the same compound?
The Fa value was 0.516.

And the CI value (DU-145 cells; [14])?
Its CI value is 2.697.

And the Fa value (DU-145 cells; [14])?
The Fa value was 0.676.

And the CI value (DU-145 cells; [15])?
The CI value was 0.445.

And the Fa value (DU-145 cells; [15])?
Its Fa value is 0.935.

What about the Relationship (DU-145 cells; [15]) of the same compound?
The Relationship was “synergistic”.

What about the “cytotoxicity of combination with docetaxel or cabazitaxel versus each drug administered independently” value (DU-145 cells; DU-145 cells) of the same compound?
Its value is “greater cytotoxicity”.

What about the IC50 (DU-145 cells; Homo sapiens, DU-145, MTT, 72-hour incubation, single agent) of the same compound?
Its IC50 is 3.3 µM.

And the CI value (22Rv1 cells; [4])?
The CI value was 0.731.

What about the Fa value (22Rv1 cells; [4]) of the same compound?
The Fa value was 0.577.

What about the Relationship (22Rv1 cells; [4]) of the same compound?
The Relationship was “synergistic”.

What about the CI value (22Rv1 cells; [5]) of the same compound?
The CI value was 0.549.

What about the Fa value (22Rv1 cells; [5]) of the same compound?
The Fa value was 0.728.

And the Relationship (22Rv1 cells; [5])?
Its Relationship is “synergistic”.

And the CI value (22Rv1 cells; [6])?
Its CI value is 0.659.

And the Fa value (22Rv1 cells; [6])?
The Fa value was 0.823.

And the Relationship (22Rv1 cells; [6])?
Its Relationship is “synergistic”.

What about the CI value (22Rv1 cells; [7]) of the same compound?
Its CI value is 1.673.

What about the Fa value (22Rv1 cells; [7]) of the same compound?
The Fa value was 0.457.

What about the CI value (22Rv1 cells; [8]) of the same compound?
The CI value was 0.373.

And the Fa value (22Rv1 cells; [8])?
Its Fa value is 0.744.

And the Relationship (22Rv1 cells; [8])?
Its Relationship is “synergistic”.

What about the CI value (22Rv1 cells; [9]) of the same compound?
The CI value was 0.267.

What about the Fa value (22Rv1 cells; [9]) of the same compound?
Its Fa value is 0.905.

What about the Relationship (22Rv1 cells; [9]) of the same compound?
Its Relationship is “synergistic”.

What about the “cytotoxicity of combination with docetaxel or cabazitaxel versus each drug administered independently” value (22Rv1 cells) of the same compound?
Its value is “greater cytotoxicity”.

And the IC50 (22Rv1 cells)?
Its IC50 is 3.1 µM.

What about the IC50 at 72 h [1] of the same compound?
Its IC50 at 72 h is 20.6 µM.

And the IC50 at 72 h [2]?
The IC50 at 72 h was 29.6 µM.

And the “tumor growth, coadministration with docetaxel” value ([3]; 20 mg/kg ip daily in combination with docetaxel 5 mg/kg weekly, comparable in magnitude to the 10 mg/kg docetaxel dose)?
Its value is “greater inhibition of tumor growth than treatment with each compound alone”.

And the tumor growth [3]?
Its tumor growth is “significantly reduced tumor growth”.

Which Ki (FABP3) does the source give for `COc1ccccc1[C@H]1[C@H](C(=O)O)[C@H](c2ccccc2OC)[C@H]1C(=O)Oc1cccc2ccccc12` (racemic) [Compound 1y] here?
Its Ki is 0.69 ± 0.17 µM.

What about the Ki (FABP7) of the same compound?
Its Ki is 0.67 ± 0.04 µM.

And the IC50 (PC3 cells)?
The IC50 was 11.4 µM.

And the CI value (PC3 cells; [4])?
Its CI value is 0.0001.

What about the Fa value (PC3 cells; [4]) of the same compound?
The Fa value was 0.998.

What about the Relationship (PC3 cells; [4]) of the same compound?
Its Relationship is “synergistic”.

What about the CI value (PC3 cells; [5]) of the same compound?
The CI value was 0.0001.

And the Fa value (PC3 cells; [5])?
Its Fa value is 0.999.

What about the Relationship (PC3 cells; [5]) of the same compound?
The Relationship was “synergistic”.

What about the CI value (PC3 cells; [6]) of the same compound?
Its CI value is 0.0001.

What about the Fa value (PC3 cells; [6]) of the same compound?
The Fa value was 0.999.

What about the Relationship (PC3 cells; [6]) of the same compound?
Its Relationship is “synergistic”.

What about the CI value (PC3 cells; [7]) of the same compound?
Its CI value is 0.897.

What about the Fa value (PC3 cells; [7]) of the same compound?
Its Fa value is 0.786.

And the Relationship (PC3 cells; [7])?
Its Relationship is “synergistic”.

And the CI value (PC3 cells; [8])?
The CI value was 0.009.

And the Fa value (PC3 cells; [8])?
Its Fa value is 0.950.

And the Relationship (PC3 cells; [8])?
The Relationship was “synergistic”.

And the CI value (PC3 cells; [9])?
Its CI value is 0.160.

What about the Fa value (PC3 cells; [9]) of the same compound?
Its Fa value is 0.992.

What about the Relationship (PC3 cells; [9]) of the same compound?
Its Relationship is “synergistic”.

What about the “cytotoxicity of combination with docetaxel or cabazitaxel versus each drug administered independently” value (PC3 cells) of the same compound?
The value was “greater cytotoxicity”.

What about the CI value (22Rv1 cells; [4]) of the same compound?
Its CI value is 0.707.

And the Fa value (22Rv1 cells; [4])?
Its Fa value is 0.777.

And the Relationship (22Rv1 cells; [4])?
Its Relationship is “synergistic”.

What about the CI value (22Rv1 cells; [5]) of the same compound?
Its CI value is 0.396.

And the Fa value (22Rv1 cells; [5])?
The Fa value was 0.899.

What about the Relationship (22Rv1 cells; [5]) of the same compound?
The Relationship was “synergistic”.

What about the CI value (22Rv1 cells; [6]) of the same compound?
The CI value was 0.003.

And the Fa value (22Rv1 cells; [6])?
The Fa value was 0.998.

And the Relationship (22Rv1 cells; [6])?
The Relationship was “synergistic”.

And the CI value (22Rv1 cells; [7])?
The CI value was 3.846.

What about the Fa value (22Rv1 cells; [7]) of the same compound?
The Fa value was 0.795.

And the CI value (22Rv1 cells; [8])?
Its CI value is 0.003.

And the Fa value (22Rv1 cells; [8])?
The Fa value was 0.904.

And the Relationship (22Rv1 cells; [8])?
Its Relationship is “synergistic”.

What about the CI value (22Rv1 cells; [9]) of the same compound?
The CI value was 0.005.

And the Fa value (22Rv1 cells; [9])?
Its Fa value is 0.999.

And the Relationship (22Rv1 cells; [9])?
Its Relationship is “synergistic”.

What about the “cytotoxicity of combination with docetaxel or cabazitaxel versus each drug administered independently” value (22Rv1 cells) of the same compound?
The value was “greater cytotoxicity”.

And the IC50 (22Rv1 cells)?
The IC50 was 10.1 µM.

And the IC50 at 72 h [1]?
The IC50 at 72 h was 26 µM.

And the IC50 at 72 h [2]?
The IC50 at 72 h was 29.4 µM.

What about the tumor growth [3] of the same compound?
The tumor growth was “significantly reduced tumor growth”.
